Measured values: patent US6472530B1, “Benzo-fused dithiepino[6,5-b]pyridines, and related compositions and methods” (Ortho-McNeil Pharmaceutical, Inc., priority 1999, dated 2002)
Read-outs that look alike come from different tables or passages of the source.

Biological target: T1, calcium channel (Oryctolagus cuniculus, UniProt P15381)
T1 construct: from tissue; host or cells: rabbit heart membrane preparation
Assay: Assay for Inhibition of Nitrendipine Binding (3H-nitrendipine, heart membranes)
Parameters: species or system rabbit
Procedure: Assay for Inhibition of Nitrendipine Binding
Female, New Zealand white rabbits (1-2 kg) are sacrificed by cervical dislocation, and the heart is immediately removed, cleaned and chopped into small pieces. The tissue is homogenized in 5×times volume of 0.05M Hepes buffer, pH 7.4. The homogenate is centrifuged at 4000 g for 10 minutes, and the supernatant is re-centrifuged at 42,000×g for 90 minutes. The resulting membrane pellet is resuspended (0.7 ml/g weight) in 0.05M Hepes, pH 7.4 and stored at […] until used. Each tube of the binding assay contains ^3H-nitrendipine (0.05-0.50 nM), buffer, membranes (0.10 ml), and test compound in a total volume of 1.0 ml. After 90 minutes at 4° C., the bound nitrendipine is separated from the unbound by filtration on Whatman GF/C filters. After rinsing, the filters are dried and counted in a liquid scintillation counter.
Non-specific binding of ^3H-nitrendipine (that amount bound in the presence of excess unlabelled nitrendipine) is subtracted from the total bound to obtain specifically bound radiolabeled nitrendipine. The amount of specifically bound nitrendipine in the presence of a test compound is compared to that amount bound in the absence of a compound. A percent displacement (or inhibition) can then be calculated.

[1] = Table 2, compounds of Formula II, 3H-nitrendipine displacement, rabbit heart membranes, read-out: Nitrendipine Binding IC50
[2] = Table 1, compounds of Formula I, 3H-nitrendipine displacement, rabbit heart membranes, read-out: Nitrendipine Binding Assay IC50

T1 sequence (P15381 whole entry, other chains not shown): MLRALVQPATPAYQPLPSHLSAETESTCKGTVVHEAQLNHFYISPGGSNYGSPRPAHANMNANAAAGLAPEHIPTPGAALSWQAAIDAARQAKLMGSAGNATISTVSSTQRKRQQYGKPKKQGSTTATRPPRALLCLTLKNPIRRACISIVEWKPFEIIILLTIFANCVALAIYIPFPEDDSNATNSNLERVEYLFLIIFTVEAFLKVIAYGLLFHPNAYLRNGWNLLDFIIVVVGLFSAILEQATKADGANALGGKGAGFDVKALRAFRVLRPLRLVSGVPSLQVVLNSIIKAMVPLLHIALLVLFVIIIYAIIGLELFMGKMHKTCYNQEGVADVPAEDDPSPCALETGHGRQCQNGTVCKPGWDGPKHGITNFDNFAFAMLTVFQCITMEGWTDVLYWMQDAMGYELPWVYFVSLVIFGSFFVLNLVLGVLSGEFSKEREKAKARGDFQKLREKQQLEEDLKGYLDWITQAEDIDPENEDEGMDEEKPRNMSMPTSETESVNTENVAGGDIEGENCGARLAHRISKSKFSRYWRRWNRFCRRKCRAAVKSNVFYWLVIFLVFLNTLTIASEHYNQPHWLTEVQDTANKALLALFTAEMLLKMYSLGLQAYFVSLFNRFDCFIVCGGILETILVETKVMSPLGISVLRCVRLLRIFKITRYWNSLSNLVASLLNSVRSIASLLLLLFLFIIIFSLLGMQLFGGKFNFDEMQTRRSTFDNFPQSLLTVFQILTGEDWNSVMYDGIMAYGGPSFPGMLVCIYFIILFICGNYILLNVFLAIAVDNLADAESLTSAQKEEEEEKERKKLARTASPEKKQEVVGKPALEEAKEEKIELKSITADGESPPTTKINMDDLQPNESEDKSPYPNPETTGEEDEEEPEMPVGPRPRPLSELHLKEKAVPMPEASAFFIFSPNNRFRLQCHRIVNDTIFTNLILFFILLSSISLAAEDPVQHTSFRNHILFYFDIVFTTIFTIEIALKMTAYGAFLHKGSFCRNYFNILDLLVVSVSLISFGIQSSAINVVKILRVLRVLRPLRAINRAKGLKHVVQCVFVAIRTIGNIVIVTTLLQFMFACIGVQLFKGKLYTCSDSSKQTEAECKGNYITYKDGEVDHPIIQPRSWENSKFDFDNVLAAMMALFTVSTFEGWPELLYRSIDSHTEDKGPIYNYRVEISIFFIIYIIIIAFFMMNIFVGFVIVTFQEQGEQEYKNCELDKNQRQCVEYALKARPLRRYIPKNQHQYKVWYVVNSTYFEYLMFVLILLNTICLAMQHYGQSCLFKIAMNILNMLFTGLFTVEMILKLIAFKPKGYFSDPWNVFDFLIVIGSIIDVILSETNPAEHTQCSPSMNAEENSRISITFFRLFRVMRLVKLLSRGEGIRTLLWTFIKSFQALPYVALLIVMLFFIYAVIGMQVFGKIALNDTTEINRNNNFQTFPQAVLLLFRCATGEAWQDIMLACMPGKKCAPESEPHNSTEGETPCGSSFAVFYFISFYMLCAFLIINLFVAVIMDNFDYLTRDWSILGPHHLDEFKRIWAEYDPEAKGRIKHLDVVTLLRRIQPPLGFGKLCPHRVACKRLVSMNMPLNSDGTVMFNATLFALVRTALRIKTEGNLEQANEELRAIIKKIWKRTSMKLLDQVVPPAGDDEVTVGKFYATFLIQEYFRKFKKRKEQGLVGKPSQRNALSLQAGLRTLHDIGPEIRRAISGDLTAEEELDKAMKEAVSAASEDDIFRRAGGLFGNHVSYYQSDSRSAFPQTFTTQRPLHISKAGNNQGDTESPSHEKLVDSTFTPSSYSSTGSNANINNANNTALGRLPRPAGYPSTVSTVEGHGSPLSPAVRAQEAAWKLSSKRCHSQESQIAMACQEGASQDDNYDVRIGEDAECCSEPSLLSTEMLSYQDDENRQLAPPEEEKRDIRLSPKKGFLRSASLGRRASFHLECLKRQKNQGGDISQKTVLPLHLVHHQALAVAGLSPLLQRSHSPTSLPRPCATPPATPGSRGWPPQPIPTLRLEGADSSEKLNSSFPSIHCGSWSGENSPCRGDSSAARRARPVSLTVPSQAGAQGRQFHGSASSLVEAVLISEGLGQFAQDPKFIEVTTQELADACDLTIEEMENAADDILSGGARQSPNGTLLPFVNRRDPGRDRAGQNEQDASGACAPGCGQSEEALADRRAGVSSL
T1 sequence (P13806 27-960 partner limits assumed, other chains not shown): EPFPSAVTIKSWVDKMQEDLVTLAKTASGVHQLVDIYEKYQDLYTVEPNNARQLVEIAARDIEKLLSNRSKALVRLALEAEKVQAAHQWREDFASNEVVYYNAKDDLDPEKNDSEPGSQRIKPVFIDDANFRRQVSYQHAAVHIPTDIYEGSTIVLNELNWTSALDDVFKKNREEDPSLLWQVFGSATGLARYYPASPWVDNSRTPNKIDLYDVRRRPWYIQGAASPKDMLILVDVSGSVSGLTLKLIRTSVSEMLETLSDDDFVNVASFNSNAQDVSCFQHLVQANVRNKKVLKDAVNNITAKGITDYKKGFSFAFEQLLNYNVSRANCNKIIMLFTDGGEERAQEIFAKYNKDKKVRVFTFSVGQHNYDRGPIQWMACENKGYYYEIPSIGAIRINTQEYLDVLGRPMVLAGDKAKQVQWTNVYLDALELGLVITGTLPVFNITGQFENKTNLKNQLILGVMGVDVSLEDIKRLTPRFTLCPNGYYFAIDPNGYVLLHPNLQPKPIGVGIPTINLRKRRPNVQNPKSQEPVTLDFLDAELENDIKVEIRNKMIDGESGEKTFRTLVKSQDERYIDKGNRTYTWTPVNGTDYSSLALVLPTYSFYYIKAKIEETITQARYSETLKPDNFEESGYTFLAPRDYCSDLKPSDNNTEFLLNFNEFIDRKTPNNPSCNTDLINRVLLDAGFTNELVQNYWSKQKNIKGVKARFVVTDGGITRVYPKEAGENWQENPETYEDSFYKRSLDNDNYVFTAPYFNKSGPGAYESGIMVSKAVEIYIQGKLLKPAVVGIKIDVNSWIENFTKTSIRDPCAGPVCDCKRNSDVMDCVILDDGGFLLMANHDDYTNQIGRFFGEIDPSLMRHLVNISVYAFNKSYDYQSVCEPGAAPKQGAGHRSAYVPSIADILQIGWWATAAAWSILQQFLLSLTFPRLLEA
T1 sequence (P13806 961-1106 partner limits assumed, other chains not shown): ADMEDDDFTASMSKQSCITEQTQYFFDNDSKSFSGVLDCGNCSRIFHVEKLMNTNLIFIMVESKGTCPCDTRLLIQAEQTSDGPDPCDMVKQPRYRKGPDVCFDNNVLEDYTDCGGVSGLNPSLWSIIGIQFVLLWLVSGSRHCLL

SMILES: CC1=C(C(=O)OCCOC(=O)/C=C/c2ccccc2)C(c2c(F)cccc2Cl)C2=C(CS(=O)(=O)c3ccccc3S2(=O)=O)N1 (stereo not shown) [Compound 37, 1H-[1,5]benzodithiepino[3,2-b]pyridine-3-carboxylic acid, 4-(2-chloro-6-fluorophenyl)-4,11-dihydro-2-methyl-, 2-[[(2E)-1-oxo-3-phenyl-2-propenyl]oxy]ethyl ester, 5,5,10,10-tetraoxide]
- IC50 [1]: 101 nM

SMILES: CC1=C(C(=O)OCCN(C)Cc2ccccc2)C(c2ccccc2Cl)C2=C(C[S+]([O-])c3ccccc3S2(=O)=O)N1 (stereo not shown) [Compound 18, 1H-[1,5]Benzodithiepino[3,2-b]pyridine-3-carboxylic acid, 4-(2-chlorophenyl)-4,11-dihydro-2-methyl, 2-[methyl(phenylmethyl)amino]ethyl ester, 5,5,10-trioxide]
- IC50 [2]: 23 nM

SMILES: CC1=C(C(=O)OCCNC(=O)OC(C)(C)C)C(c2c(F)cccc2Cl)C2=C(CS(=O)(=O)c3ccccc3S2(=O)=O)N1 (stereo not shown) [Compound 25, 1H-[1,5]benzodithiepino[3,2-b]pyridine-3-carboxylic acid, 4-(2-chloro-6-fluorophenyl)-4,11-dihydro-2-methyl-, 2-[[(1,1-dimethylethoxy)carbonyl]amino]ethyl ester, 5,5,10,10-tetraoxide]
- IC50 [1]: 420 nM

SMILES: CC1=C(C(=O)OCCN(C)Cc2ccccc2)C(c2cccc(C(F)(F)F)c2F)C2=C(CS(=O)(=O)c3ccccc3S2(=O)=O)N1 (stereo not shown) [Compound 14, 1H-[1,5]Benzodithiepino[3,2-b]pyridine-3-carboxylic acid, 4-[2-fluoro-3-(trifluoromethyl)phenyl]-4,11-dihydro-2-methyl, 2-[methyl(phenylmethyl)-amino]ethyl ester, 5,5,10,10-tetraoxide]
- IC50 [2]: 58 nM

SMILES: COC(=O)C1=C(C)NC2=C(C1c1ccccc1Cl)S(=O)(=O)c1ccccc1[S+]([O-])C2 (stereo not shown) [Compound 1, 1H-[1,5]Benzodithiepino[3,2-b]pyridine-3-carboxylic acid, 4-(2-chlorophenyl)-4,11-dihydro-2-methyl, methyl ester, 5,5,10-trioxide]
- IC50 [2]: 14 nM

SMILES: COC(=O)C1=C(C)NC2=C(C1c1cccc(Cl)c1)S(=O)(=O)c1ccccc1S(=O)(=O)C2 (stereo not shown) [Compound 9, 1H-[1,5]Benzodithiepino[3,2-b]pyridine-3-carboxylic acid, 4-(3-chlorophenyl)-4,11-dihydro-2-methyl, methyl ester, 5,5,10,10-tetraoxide]
- IC50 [2]: 10 nM

SMILES: CC1=C(C(=O)OCCOC(=O)Cc2ccccc2)C(c2c(F)cccc2Cl)C2=C(CS(=O)(=O)c3ccccc3S2(=O)=O)N1 (stereo not shown) [Compound 30]
- IC50: 110 nM

SMILES: CC1=C(C(=O)OCCN(C)Cc2ccccc2)C(c2c(F)cccc2Cl)C2=C(CS(=O)(=O)c3ccccc3S2(=O)=O)N1 (stereo not shown) [Compound 17, 1H-[1,5]Benzodithiepino[3,2-b]pyridine-3-carboxylic acid, 4-(2-chloro-6-fluorophenyl)-4,11-dihydro-2-methyl, 2-[methyl(phenylmethyl)amino]ethyl ester, 5,5,10,10-tetraoxide]
- IC50 [2]: 62 nM

SMILES: COC(=O)C1=C(C)NC2=C(C1c1cccc(Cl)c1Cl)S(=O)(=O)c1ccccc1[S+]([O-])C2 (stereo not shown) [Compound 7, 1H-[1,5]Benzodithiepino[3,2-b]pyridine-3-carboxylic acid, 4-(2,3-dichlorophenyl)-4,11-dihydro-2-methyl, methyl ester, 5,5,10-trioxide]
- IC50 [2]: 8 nM

SMILES: COC(=O)C1=C(C)NC2=C(C1c1c(F)c(F)c(F)c(F)c1F)S(=O)(=O)c1ccccc1S(=O)(=O)C2 (stereo not shown) [Compound 11, 1H-[1,5]Benzodithiepino[3,2-b]pyridine-3-carboxylic acid, 4,11-dihydro-2-methyl-4-(pentafluorophenyl), methyl ester, 5,5,10,10-tetraoxide]
- IC50 [2]: 12 nM
